Data: patent publication US7122624B2, “Parathyroid hormone receptor ligands” (The United States of America as represented by the …, priority 1999, dated 2006)

Columns and labels:
[1] = system: PTH1 receptor; assay: Filtration binding assay, COS-7 membranes, wild-type PTH1 receptor; set-up: species or system human; details: 10 μM GTPγS
[2] = biological target: T1, PTH2 receptor (Homo sapiens, UniProt P49190); assay: Radioligand displacement binding to HEK293 cell membranes expressing the human PTH2 receptor; details: 10 μM GTPγS, filtration assay
T1 sequence (P49190 25-550): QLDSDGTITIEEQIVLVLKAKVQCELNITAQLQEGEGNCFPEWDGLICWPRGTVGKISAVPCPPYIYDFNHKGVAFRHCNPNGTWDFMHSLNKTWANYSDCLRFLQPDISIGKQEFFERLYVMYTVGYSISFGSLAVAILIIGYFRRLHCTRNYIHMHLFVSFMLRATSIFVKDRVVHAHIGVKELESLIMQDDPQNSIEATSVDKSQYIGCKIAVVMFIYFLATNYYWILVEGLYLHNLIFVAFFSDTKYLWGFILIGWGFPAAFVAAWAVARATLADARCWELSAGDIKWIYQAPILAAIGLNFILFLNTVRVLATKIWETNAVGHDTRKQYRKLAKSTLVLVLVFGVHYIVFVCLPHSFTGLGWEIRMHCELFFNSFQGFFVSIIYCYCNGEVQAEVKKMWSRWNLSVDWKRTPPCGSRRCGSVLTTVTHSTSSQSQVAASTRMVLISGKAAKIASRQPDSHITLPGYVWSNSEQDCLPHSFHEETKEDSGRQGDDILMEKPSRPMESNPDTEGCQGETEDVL
Protocol: In these assays the binding of a range of concentrations of an unlabeled ligand was measured by displacement of radioligand binding. Three methods were employed. An assay employing centrifugation to separate bound and free radioligand was used to accurately measure ligand binding parameters. A higher-throughput method employing rapid filtration was used to generate comparative ligand binding data. […] In these assays a very low concentration of radioligand was used so that the IC50 closely approximates the ligand affinity.
In the centrifugation assay cell membranes (45–50 μg), radioligand (100,000–300,000 cpm) and unlabeled ligand were incubated in a final volume of 1 ml assay buffer (20 mM HEPES, 100 mM NaCl, 1 mM EDTA, 3 mM MgSO4 pH 7.5, supplemented with 0.3% non-fat dried milk powder, 100 μM AEBSF and 1 μg/ml bacitracin) for two hours at 21° C. Membranes were collected at 18,000×g, the surface of the pellet gently washed and the radioactivity counted as described in Examples. […] Less than 20% of the total radioligand added was bound within the membrane pellet. […] (Greater than 50% of the total radioligand was bound if all the membrane in the incubation was from transfected cells).
For inhibition of radioligand binding, y is the cpm bound at a given unlabeled ligand concentration, min is non-specific binding (measured in the presence of a high concentration of the unlabeled version of the radiolabeled ligand) and max is total binding (measured in the absence of unlabeled ligand).
Binding was measured in the presence of 10 μM GTPγS to minimize complications arising from receptor-G-protein coupling, such as pseudo-irreversible binding of the agonist radioligand.
A similar assay design was used for the PTH1 and PTH2 receptor, in which radiolabeled agonist binding was displaced by the unlabeled ligands in the presence of 10 μM GTPγS. Briefly, cell membranes (45 μg), radioligand (50,000 cpm) and unlabeled ligand were incubated in a final volume of 1 ml assay buffer (20 mM HEPES, 100 mM NaCl, 1 mM EDTA, 3 mM MgSO4 pH 7.5, supplemented with 0.3% non-fat dried milk powder, 100 μM (4-(2-aminoethyl))-benzenesulfonylflouride (AEBSF), 1 μg/ml bacitracin and 10 μM GTPγS) for two hours at 21° C. Membranes were collected at 18,000×g, the surface of the pellet gently washed and the radioactivity counted as described in Examples. […] To prevent greater than 20% of the total radioligand added from binding to the membranes, 15–20 μg of membranes from transfected cells were used, made up to 45 μg with membranes from non-transfected cells.

[3] = biological target: T1, PTH2 receptor; assay: Filtration binding assay, COS-7 membranes, wild-type PTH2 receptor; set-up: expressed in transfected cells; host or cells: COS-7 (transient), pcDNA1/Amp; details: 10 μM GTPγS
[4] = biological target: T2, P1-NP2 receptor (Homo sapiens, UniProt P49190+Q03431, A289V/A293V/A295V/A297V/A304T/A311S/A320V/A325S/A362L/C381A/C397Y/D272E/D303N/D313N/DEL207-232/E308D/E392Q/F286L/F386V/F400L/G327V/G351R/G390L/H202T/H204A/H352C/H384T/I205A/I234A/I238V/I244L/I280T/I282F/I314K/I344L/I393V/INS200[…]/INS383Y/K237R/K356Q/L281V/L334I/L370P/L382T/L389T/L399M/M242F/M427S/N263S/R199A/R305G/R394Q/S385E/S410A/T192V/T273K/T336I/T387S/V185L/V201A/V241T/V267M/V296S/V350G/V369M/V371L/V380M/V424I/W345R/Y318I/Y415F); assay: Filtration binding assay, COS-7 membranes, P1-NP2 chimeric receptor; details: 10 μM GTPγS
T2 construct: the N-terminal domain and first transmembrane domain of the PTH2 receptor fused to the remainder of the PTH1 receptor (P1-NP2); exchanging residues 215–594 of the PTH1 receptor; expressed in transfected cells; host or cells: COS-7 (transient)
T2 sequence (P49190+Q03431 fused with the stated changes): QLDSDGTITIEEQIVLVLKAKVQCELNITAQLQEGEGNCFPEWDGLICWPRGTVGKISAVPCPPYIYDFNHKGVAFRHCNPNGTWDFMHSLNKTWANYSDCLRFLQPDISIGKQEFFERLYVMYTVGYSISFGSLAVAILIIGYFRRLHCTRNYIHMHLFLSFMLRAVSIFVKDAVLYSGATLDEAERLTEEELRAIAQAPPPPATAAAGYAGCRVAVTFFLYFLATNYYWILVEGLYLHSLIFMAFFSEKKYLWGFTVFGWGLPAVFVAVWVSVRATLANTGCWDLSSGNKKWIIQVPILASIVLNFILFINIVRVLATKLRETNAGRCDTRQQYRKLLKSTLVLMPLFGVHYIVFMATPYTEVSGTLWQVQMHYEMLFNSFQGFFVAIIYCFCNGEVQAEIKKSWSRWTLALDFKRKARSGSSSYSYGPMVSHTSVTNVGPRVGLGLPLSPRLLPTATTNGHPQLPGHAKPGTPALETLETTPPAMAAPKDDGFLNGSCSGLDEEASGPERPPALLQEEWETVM

[5] = biological target: T3, P2-NP1 receptor (Homo sapiens, UniProt P49190+Q03431, A242R/A272V/A275H/A276I/A279I/A426C/A456S/C397H/D353E/DEL244-271/DEL429-429/DEL62-106/E317D/E431S/F287M/F327I/F461Y/G350R/G395V/I363Y/I379L/I381T/I470V/INS277[…]/K318T/K359I/L228V/L289I/L331F/L389I/L407A/L416V/L436G/L446F/M312V/M414V/M425V/M445L/N348D/N358D/P415L/Q401K/Q438E/Q440R/R282K/R390W/R396G/S308N/S341V/S356A/S370A/S433T/S473M/T273H/T286V/T325I/T349A/T427L/T430H/T435L/V235T/V283I/V326L/V334A/V338A/V340A/V342A/V365A/V372G/V432F/V439I/Y443C); assay: Filtration binding assay, COS-7 membranes, P2-NP1 chimeric receptor; details: 10 μM GTPγS
T3 construct: N-terminal domain and first transmembrane domain of the PTH 1 receptor fused to the remainder of the PTH2 receptor (P2-NP1); residues 172–550 of the PTH2 receptor; expressed in transfected cells; host or cells: COS-7 (transient)
T3 sequence (Q03431+P49190 fused with the stated changes): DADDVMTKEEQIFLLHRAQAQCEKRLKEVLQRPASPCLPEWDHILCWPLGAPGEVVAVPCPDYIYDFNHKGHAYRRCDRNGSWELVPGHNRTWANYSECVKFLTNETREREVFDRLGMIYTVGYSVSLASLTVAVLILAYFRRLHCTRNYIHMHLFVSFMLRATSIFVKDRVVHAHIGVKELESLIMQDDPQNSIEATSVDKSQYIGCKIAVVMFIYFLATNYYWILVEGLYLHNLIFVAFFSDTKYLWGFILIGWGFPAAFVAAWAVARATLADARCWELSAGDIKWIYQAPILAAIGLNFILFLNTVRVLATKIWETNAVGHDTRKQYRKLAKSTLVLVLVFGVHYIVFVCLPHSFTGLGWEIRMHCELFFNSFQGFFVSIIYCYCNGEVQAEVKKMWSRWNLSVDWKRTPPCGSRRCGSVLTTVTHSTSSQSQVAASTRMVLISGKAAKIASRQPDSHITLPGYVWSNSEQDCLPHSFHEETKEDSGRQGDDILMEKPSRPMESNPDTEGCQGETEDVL

For Nc1nc2c(ncn2[C@@H]2O[C@H](COP(=O)(O)OP(=O)(O)OP(O)(O)=S)[C@@H](O)[C@H]2O)c(=O)[nH]1 [GTPγS], the “reduction of radioligand binding” value [1] was 5±2%, the “reduction of [125I]TIP39 binding” value [2] was 62±2% and the “reduction of radioligand binding” value [3] was 53±4%. For the same compound, the “reduction of radioligand binding” value [4] was 63±1% and the “reduction of radioligand binding” value [5] was 69±6%.
